Test results taken from ChEMBL document CHEMBL4627322, “Design and synthesis of a novel class EGFR/HER2 dual inhibitors containing tricyclic oxazine fused quinazolines scaffold” (Bioorg Med Chem Lett, 2020).

Key:
NCI-H1975 [1] = assay: Potency index, ratio of gefitinib IC50 to test compound IC50 for antiproliferative activity against human NCI-H1975 cells harboring EGFR L858R/T790M mutant assessed as cell growth inhibition measured after 72 hrs by MTT assay; assay type: functional
[2] = biological target: T1, Receptor tyrosine-protein kinase erbB-2 (Homo sapiens, UniProt P04626); assay: Inhibition of HER2 (unknown origin) using FAM-labeled peptide as substrate preincubated for 10 mins followed by substrate addition measured after 40 mins in presence of ATP by caliper mobility shift assay
T1 sequence (P04626 whole entry): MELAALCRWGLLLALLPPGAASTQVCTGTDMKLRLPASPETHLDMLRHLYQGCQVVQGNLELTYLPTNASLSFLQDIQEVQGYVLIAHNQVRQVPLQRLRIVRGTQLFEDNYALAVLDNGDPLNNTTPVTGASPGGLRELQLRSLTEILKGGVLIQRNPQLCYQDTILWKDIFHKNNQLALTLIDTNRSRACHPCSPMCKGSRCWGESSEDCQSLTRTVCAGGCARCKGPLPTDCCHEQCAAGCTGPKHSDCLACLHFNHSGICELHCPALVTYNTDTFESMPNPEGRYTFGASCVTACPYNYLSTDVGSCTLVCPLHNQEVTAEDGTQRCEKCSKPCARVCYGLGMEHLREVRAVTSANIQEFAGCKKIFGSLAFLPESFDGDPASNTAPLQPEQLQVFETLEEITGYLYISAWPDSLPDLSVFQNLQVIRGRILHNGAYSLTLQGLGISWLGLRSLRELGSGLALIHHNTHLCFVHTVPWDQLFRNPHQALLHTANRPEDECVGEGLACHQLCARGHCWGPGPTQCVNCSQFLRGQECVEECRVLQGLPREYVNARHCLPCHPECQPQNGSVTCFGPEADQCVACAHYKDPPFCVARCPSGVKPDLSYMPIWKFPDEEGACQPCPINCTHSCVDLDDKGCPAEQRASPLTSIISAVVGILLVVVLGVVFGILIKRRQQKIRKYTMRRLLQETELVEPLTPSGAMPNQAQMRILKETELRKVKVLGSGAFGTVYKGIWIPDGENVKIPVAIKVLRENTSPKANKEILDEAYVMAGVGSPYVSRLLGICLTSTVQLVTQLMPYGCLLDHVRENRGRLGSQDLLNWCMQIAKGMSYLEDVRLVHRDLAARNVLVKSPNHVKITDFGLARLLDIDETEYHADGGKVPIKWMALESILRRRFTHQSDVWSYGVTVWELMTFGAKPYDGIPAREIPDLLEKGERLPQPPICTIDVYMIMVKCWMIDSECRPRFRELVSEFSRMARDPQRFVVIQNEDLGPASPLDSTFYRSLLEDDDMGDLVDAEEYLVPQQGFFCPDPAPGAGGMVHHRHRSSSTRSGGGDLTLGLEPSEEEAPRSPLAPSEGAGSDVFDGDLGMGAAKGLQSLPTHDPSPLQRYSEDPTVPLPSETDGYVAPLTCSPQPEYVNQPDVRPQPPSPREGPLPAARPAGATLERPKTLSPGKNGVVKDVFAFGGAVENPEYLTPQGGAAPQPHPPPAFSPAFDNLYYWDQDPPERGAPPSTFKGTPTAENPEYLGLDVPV

[3] = biological target: T2, Epidermal growth factor receptor (Homo sapiens, UniProt P00533); assay: Potency index, ratio of lapatinib IC50 to test compound IC50 for inhibition of EGFR (unknown origin) using FAM-labeled peptide as substrate preincubated for 10 mins followed by substrate addition measured after 40 mins in presence of ATP by caliper mobility shift assay
T2 sequence (P00533 whole entry): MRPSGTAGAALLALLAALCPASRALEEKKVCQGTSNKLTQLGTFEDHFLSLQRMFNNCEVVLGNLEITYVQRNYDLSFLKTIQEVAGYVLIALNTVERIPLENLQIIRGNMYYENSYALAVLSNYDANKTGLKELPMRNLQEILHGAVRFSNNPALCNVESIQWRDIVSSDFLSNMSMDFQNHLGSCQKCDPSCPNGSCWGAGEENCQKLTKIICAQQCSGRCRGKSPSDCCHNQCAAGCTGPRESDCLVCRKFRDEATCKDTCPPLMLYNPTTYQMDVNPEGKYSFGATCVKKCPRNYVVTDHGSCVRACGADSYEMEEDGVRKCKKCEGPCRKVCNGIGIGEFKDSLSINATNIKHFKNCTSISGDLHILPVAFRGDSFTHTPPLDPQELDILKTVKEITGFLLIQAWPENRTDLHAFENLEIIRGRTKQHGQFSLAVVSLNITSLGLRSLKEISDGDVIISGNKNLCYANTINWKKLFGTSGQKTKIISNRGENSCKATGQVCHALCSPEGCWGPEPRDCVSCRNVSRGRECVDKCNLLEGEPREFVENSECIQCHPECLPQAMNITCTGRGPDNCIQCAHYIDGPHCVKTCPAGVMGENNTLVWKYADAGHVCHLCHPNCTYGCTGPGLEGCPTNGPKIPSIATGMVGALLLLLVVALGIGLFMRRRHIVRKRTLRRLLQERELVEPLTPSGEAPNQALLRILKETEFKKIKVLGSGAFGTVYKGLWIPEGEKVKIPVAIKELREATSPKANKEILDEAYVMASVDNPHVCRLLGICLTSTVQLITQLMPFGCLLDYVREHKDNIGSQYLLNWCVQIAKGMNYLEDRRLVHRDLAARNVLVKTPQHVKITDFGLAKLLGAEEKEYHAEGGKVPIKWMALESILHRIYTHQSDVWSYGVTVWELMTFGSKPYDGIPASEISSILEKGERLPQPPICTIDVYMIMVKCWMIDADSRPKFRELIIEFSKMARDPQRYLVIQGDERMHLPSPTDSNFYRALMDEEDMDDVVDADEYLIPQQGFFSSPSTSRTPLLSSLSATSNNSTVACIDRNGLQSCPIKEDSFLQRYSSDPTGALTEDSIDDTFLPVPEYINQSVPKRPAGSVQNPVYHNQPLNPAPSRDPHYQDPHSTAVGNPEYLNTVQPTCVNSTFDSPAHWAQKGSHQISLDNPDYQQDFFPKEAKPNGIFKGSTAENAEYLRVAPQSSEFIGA

[4] = biological target: T1, Receptor tyrosine-protein kinase erbB-2; assay: Potency index, ratio of erlotinib IC50 to test compound IC50 for inhibition of HER2 (unknown origin) using FAM-labeled peptide as substrate preincubated for 10 mins followed by substrate addition measured after 40 mins in presence of ATP by caliper mobility shift assay
NCI-H1975 [5] = assay: cells; assay type: functional, cell-based; conditions: Homo sapiens, NCI-H1975, 72 h
Description: Antiproliferative activity against human NCI-H1975 cells harboring EGFR L858R/T790M mutant assessed as cell growth inhibition measured after 72 hrs by MTT assay

NCI-N87 [6] = assay: cells; assay type: functional, cell-based; conditions: Homo sapiens, NCI-N87, 72 h
Description: Antiproliferative activity against human NCI-N87 cells overexpressing HER2 assessed as cell growth inhibition measured after 72 hrs by MTT assay

Calu-3 [7] = assay: cells; assay type: functional, cell-based; conditions: Homo sapiens, Calu-3, 72 h
Description: Antiproliferative activity against human Calu3 cells overexpressing HER2 assessed as cell growth inhibition measured after 72 hrs by MTT assay

[8] = biological target: T2, Epidermal growth factor receptor
Description: Inhibition of EGFR (unknown origin) using FAM-labeled peptide as substrate preincubated for 10 mins followed by substrate addition measured after 40 mins in presence of ATP by caliper mobility shift assay

NCI-H1975 [9] = assay: Potency index, ratio of lapatinib IC50 to test compound IC50 for antiproliferative activity against human NCI-H1975 cells harboring EGFR L858R/T790M mutant assessed as cell growth inhibition measured after 72 hrs by MTT assay; assay type: functional
NCI-H1975 [10] = assay: Potency index, ratio of erlotinib IC50 to test compound IC50 for antiproliferative activity against human NCI-H1975 cells harboring EGFR L858R/T790M mutant assessed as cell growth inhibition measured after 72 hrs by MTT assay; assay type: functional
BT-474 [11] = assay: cells; assay type: functional, cell-based; conditions: Homo sapiens, BT-474, 72 h
Description: Antiproliferative activity against human BT474 cells overexpressing HER2 assessed as cell growth inhibition measured after 72 hrs by MTT assay

[12] = biological target: T1, Receptor tyrosine-protein kinase erbB-2; assay: Potency index, ratio of gefitinib IC50 to test compound IC50 for inhibition of HER2 (unknown origin) using FAM-labeled peptide as substrate preincubated for 10 mins followed by substrate addition measured after 40 mins in presence of ATP by caliper mobility shift assay
[13] = biological target: T1, Receptor tyrosine-protein kinase erbB-2; assay: Potency index, ratio of lapatinib IC50 to test compound IC50 for inhibition of HER2 (unknown origin) using FAM-labeled peptide as substrate preincubated for 10 mins followed by substrate addition measured after 40 mins in presence of ATP by caliper mobility shift assay
A-431 [14] = assay: cells; assay type: functional, cell-based; conditions: Homo sapiens, A-431, 72 h
Description: Antiproliferative activity against human A431 cells overexpressing EGFR assessed as cell growth inhibition measured after 72 hrs by MTT assay

[15] = biological target: T2, Epidermal growth factor receptor; assay type: cell-based, KB
Description: Inhibition of EGFR in human KB cells assessed as reduction in EGF-stimulated EGFR phosphorylation preincubated for 1 hr followed by EGF stimulation and measured after 6 mins by ELISA

Calu-3 [16] = assay: Potency index, ratio of gefitinib IC50 to test compound IC50 for antiproliferative activity against human Calu3 cells overexpressing HER2 assessed as cell growth inhibition measured after 72 hrs by MTT assay; assay type: functional
BT-474 [17] = assay: Potency index, ratio of gefitinib IC50 to test compound IC50 for antiproliferative activity against human BT474 cells overexpressing HER2 assessed as cell growth inhibition measured after 72 hrs by MTT assay; assay type: functional
NCI-N87 [18] = assay: Potency index, ratio of lapatinib IC50 to test compound IC50 for antiproliferative activity against human NCI-N87 cells overexpressing HER2 assessed as cell growth inhibition measured after 72 hrs by MTT assay; assay type: functional
Calu-3 [19] = assay: Potency index, ratio of erlotinib IC50 to test compound IC50 for antiproliferative activity against human Calu3 cells overexpressing HER2 assessed as cell growth inhibition measured after 72 hrs by MTT assay; assay type: functional
BT-474 [20] = assay: Potency index, ratio of erlotinib IC50 to test compound IC50 for antiproliferative activity against human BT474 cells overexpressing HER2 assessed as cell growth inhibition measured after 72 hrs by MTT assay; assay type: functional
A-431 [21] = assay: Potency index, ratio of erlotinib IC50 to test compound IC50 for antiproliferative activity against human A431 cells overexpressing EGFR assessed as cell growth inhibition measured after 72 hrs by MTT assay; assay type: functional
NCI-N87 [22] = assay: Potency index, ratio of erlotinib IC50 to test compound IC50 for antiproliferative activity against human NCI-N87 cells overexpressing HER2 assessed as cell growth inhibition measured after 72 hrs by MTT assay; assay type: functional
Calu-3 [23] = assay: Potency index, ratio of lapatinib IC50 to test compound IC50 for antiproliferative activity against human Calu3 cells overexpressing HER2 assessed as cell growth inhibition measured after 72 hrs by MTT assay; assay type: functional
A-431 [24] = assay: Potency index, ratio of lapatinib IC50 to test compound IC50 for antiproliferative activity against human A431 cells overexpressing EGFR assessed as cell growth inhibition measured after 72 hrs by MTT assay; assay type: functional
A-431 [25] = assay: Potency index, ratio of gefitinib IC50 to test compound IC50 for antiproliferative activity against human A431 cells overexpressing EGFR assessed as cell growth inhibition measured after 72 hrs by MTT assay; assay type: functional
NCI-N87 [26] = assay: Potency index, ratio of gefitinib IC50 to test compound IC50 for antiproliferative activity against human NCI-N87 cells overexpressing HER2 assessed as cell growth inhibition measured after 72 hrs by MTT assay; assay type: functional
BT-474 [27] = assay: Potency index, ratio of lapatinib IC50 to test compound IC50 for antiproliferative activity against human BT474 cells overexpressing HER2 assessed as cell growth inhibition measured after 72 hrs by MTT assay; assay type: functional

Row | Compound | IC50 (NCI-H1975 [5]) [nM] | IC50 (NCI-N87 [6]) [nM] | IC50 (Calu-3 [7]) [nM] | IC50 (BT-474 [11]) [nM] | IC50 (A-431 [14]) [nM] | IC50 [15] [nM] | also measured
1 | CCN(CC)C/C=C/C(=O)N1CCOc2cc3ncnc(Nc4ccc(OCc5cccc(F)c5)c(Cl)c4)c3cc21 | 1490 | 37 | 275 | 57 | 612 | 163 | Ratio IC50 (NCI-H1975 [1]): 4 - 8; IC50 [2]: 4 nM; Ratio IC50 [3]: 3 to 4; Ratio IC50 [4]: 92; IC50 [8]: 8 nM; Ratio IC50 (NCI-H1975 [9]): 4 - 8; Ratio IC50 (NCI-H1975 [10]): 4 - 8; Ratio IC50 [12]: 70; Ratio IC50 [13]: 3 to 4
2 | CN1CCN(C/C=C/C(=O)N2CCCOc3cc4ncnc(Nc5ccc(OCc6cccc(F)c6)c(Cl)c5)c4cc32)CC1 | > 10000 | 1840 | > 10000 | 1700 | 8500 | 4870 | –
3 | O=C(/C=C/CN1CCCCC1)N1CCCOc2cc3ncnc(Nc4ccc(OCc5cccc(F)c5)c(Cl)c4)c3cc21 | 1660 | > 10000 | > 10000 | > 10000 | > 10000 | 844 | –
4 | O=C(/C=C/Cn1ccnc1)N1CCOc2cc3ncnc(Nc4ccc(OCc5cccc(F)c5)c(Cl)c4)c3cc21 | 2000 | 23 | – | 48 | 2490 | 120 | –
5 | CN(C)C/C=C/C(=O)N1CCOc2cc3ncnc(Nc4ccc(OCc5cccc(F)c5)c(Cl)c4)c3cc21 | 2540 | 12 | – | 21 | 258 | 126 | –
6 | CC1CCCCN1C/C=C/C(=O)N1CCCOc2cc3ncnc(Nc4ccc(OCc5cccc(F)c5)c(Cl)c4)c3cc21 (stereo not drawn) | > 10000 | 502 | > 10000 | 1010 | > 10000 | 5830 | –
7 | CN1CCN(C/C=C/C(=O)N2CCOc3cc4ncnc(Nc5ccc(OCc6cccc(F)c6)c(Cl)c5)c4cc32)CC1 | 2310 | 18 | 142 | 25 | 177 | 45 | IC50 [2]: 12 nM; Ratio IC50 [3]: 3.7; IC50 [8]: 6 nM
8 | CN(C)C/C=C/C(=O)N1CCCOc2cc3ncnc(Nc4ccc(OCc5cccc(F)c5)c(Cl)c4)c3cc21 | > 10000 | 74 | > 10000 | 127 | 2400 | 446 | –
9 | O=C(/C=C/CN1CCCC1)N1CCOc2cc3ncnc(Nc4ccc(OCc5cccc(F)c5)c(Cl)c4)c3cc21 | 1670 | 48 | 177 | 60 | 633 | 121 | Ratio IC50 (NCI-H1975 [1]): 4 - 8; IC50 [2]: 4 nM; Ratio IC50 [3]: 3 to 4; Ratio IC50 [4]: 92; IC50 [8]: 7 nM; Ratio IC50 (NCI-H1975 [9]): 4 - 8; Ratio IC50 (NCI-H1975 [10]): 4 - 8; Ratio IC50 [12]: 70; Ratio IC50 [13]: 3 to 4

Now from value to molecule, other results behind:

Row | IC50 (NCI-H1975 [5]) [nM] | IC50 (NCI-N87 [6]) [nM] | IC50 (Calu-3 [7]) [nM] | IC50 (BT-474 [11]) [nM] | IC50 (A-431 [14]) [nM] | IC50 [15] [nM] | Compound | also measured
10 | > 10000 | 838 | > 10000 | 990 | 2090 | 4870 | CC1CCN(C/C=C/C(=O)N2CCCOc3cc4ncnc(Nc5ccc(OCc6cccc(F)c6)c(Cl)c5)c4cc32)CC1 | –
11 | > 10000 | > 10000 | > 10000 | > 10000 | > 10000 | > 10000 | O=C(/C=C/CN1CCOCC1)N1CCCOc2cc3ncnc(Nc4ccc(OCc5cccc(F)c5)c(Cl)c4)c3cc21 | –
12 | 7370 | 53 | 216 | 37 | 3590 | – | CS(=O)(=O)CCNCc1ccc(-c2ccc3ncnc(Nc4ccc(OCc5cccc(F)c5)c(Cl)c4)c3c2)o1 [LAPATINIB] | –
13 | 1490 | > 10000 | > 10000 | 116 | > 10000 | 80 | CCN(CC)C/C=C/C(=O)N1CCCOc2cc3ncnc(Nc4ccc(OCc5cccc(F)c5)c(Cl)c4)c3cc21 | –
14 | 2310 | 102 | – | 127 | 448 | 179 | CC1CCCCN1C/C=C/C(=O)N1CCOc2cc3ncnc(Nc4ccc(OCc5cccc(F)c5)c(Cl)c4)c3cc21 (stereo not drawn) | –
15 | 1220 | 166 | – | 200 | 1120 | – | CC1CCN(C/C=C/C(=O)N2CCOc3cc4ncnc(Nc5ccc(OCc6cccc(F)c6)c(Cl)c5)c4cc32)CC1 | –
16 | – | > 10000 | – | > 10000 | – | – | C#Cc1cccc(Nc2ncnc3cc(OCCOC)c(OCCOC)cc23)c1 [ERLOTINIB] | –
17 | 4350 | 11 | 37 | 15 | 127 | 12 | O=C(/C=C/CN1CCOCC1)N1CCOc2cc3ncnc(Nc4ccc(OCc5cccc(F)c5)c(Cl)c4)c3cc21 | Ratio IC50 (Calu-3 [16]): 4.3 - 26.6; IC50 [2]: 12 nM; Ratio IC50 (BT-474 [17]): 4.3 - 26.6; Ratio IC50 (NCI-N87 [18]): 2.5 - 28.3; Ratio IC50 (Calu-3 [19]): >5.9 - 909; Ratio IC50 (BT-474 [20]): >5.9 - 909; Ratio IC50 (A-431 [21]): >5.9 - 909; Ratio IC50 (NCI-N87 [22]): >5.9 - 909; Ratio IC50 (Calu-3 [23]): 2.5 - 28.3; IC50 [8]: 7 nM; Ratio IC50 (A-431 [24]): 2.5 - 28.3; Ratio IC50 (A-431 [25]): 4.3 - 26.6; Ratio IC50 (NCI-N87 [26]): 4.3 - 26.6; Ratio IC50 (BT-474 [27]): 2.5 - 28.3
18 | 1780 | 73 | – | 118 | 788 | 116 | O=C(/C=C/CN1CCCCC1)N1CCOc2cc3ncnc(Nc4ccc(OCc5cccc(F)c5)c(Cl)c4)c3cc21 | –
19 | > 10000 | 109 | > 10000 | 172 | 791 | 578 | O=C(/C=C/CN1CCCC1)N1CCCOc2cc3ncnc(Nc4ccc(OCc5cccc(F)c5)c(Cl)c4)c3cc21 | –
